Values belong to the compound of their own block, whether it stands above or below them.
Columns and labels:
[1] = system: HL-60 cells; test: Intracellular retentivity of calcein and fluorescein taken up by HL-60 cells as esters; assay type: cell-based
Procedure: (§1) The compound 5 (APC) is a substantially non-fluorescent (Φf=0.007) substance having a moiety that specifically reacts with reactive oxygen species in the molecule. This substance specifically reacts with reactive oxygen species, and thereby becomes calcein to emit fluorescence. The tetracetoxymethyl ester of this calcein and diacetyl ester of fluorescein were taken up by HL-60 cells, and intracellular retentivity of calcein and fluorescein was evaluated.

[2] = pKa comparison of calcein and fluorescein; assay type: physicochemical
[3] = system: HeLa cells; test: Imaging of reactive oxygen species in living HeLa cells after sodium hypochlorite stimulation; assay type: cell-based; details: 1.0 μM loaded for 15 minutes, 500 μM sodium hypochlorite
Procedure: Imaging of reactive oxygen species in living cells was performed by using the compound 5 (APC). The compound 6 (APC-AM, 1.0 μM, 0.1% dimethylformamide (cosolvent)), which corresponds to APC esterified to increase cell membrane permeability, was loaded on the HeLa cells for 15 minutes by addition to the medium of the cells, and then the cells were stimulated with 500 μM sodium hypochlorite.

[4] = system: HL-60 cells; test: Intracellular retentivity of reaction products of APF and APC-AM in HL-60 cells by FACS; assay type: cell-based; details: 10 μM loaded 60 minutes, 100 μM hydrogen peroxide 15 minutes
Procedure: Intracellular retentivities of the reaction products produced from APF and APC with the reactive oxygen species were compared in a similar manner. APF and APC-AM (10 μM, 1.0% dimethylformamide (cosolvent) for the both) were loaded on the HL-60 cells for 60 minutes by adding them to the medium of the cells, and then the cells were stimulated with 100 μM hydrogen peroxide for 15 minutes. Then, fluorescence intensity was periodically measured (0 minute, 30 minutes, 60 minutes) by FACS. In FIG. 6, the graphs (A) to (C) show the results obtained with APF, and the graphs (D) to (F) show the results obtained with APC-AM. The graphs (A) and (D) show the results obtained immediately after the hydrogen peroxide stimulation, (B) and (E) show the results obtained 30 minutes after the stimulation, and (C) and (F) show the results obtained 60 minutes after the stimulation.

[5] = Fluorescence quantum yield (Φf); assay type: physicochemical
Procedure: as §1

Compound: O=C1OC2(c3ccc(O)cc3Oc3cc(O)ccc32)c2ccccc21 [fluorescein]
Fluorescence intensity in the HL-60 cells over time (intracellular retentivity), level remaining ([1]; after 15 minutes, loaded as diacetyl ester, fraction of the starting intensity): 1/10
pKa [2]: 6.4

Compound: CC(=O)OCOC(=O)CN(CC(=O)OCOC(C)=O)Cc1c(O)ccc2c1Oc1c(ccc(Oc3ccc([N+](=O)[O-])cc3)c1CN(CC(=O)OCOC(C)=O)CC(=O)OCOC(C)=O)C21OC(=O)c2ccccc21 (centres unmarked) [APC-AM, 3-Hydroxy-4,5-bis[N,N′-di(carboxymethyl)aminomethyl]-6-(4′-nitro)phenoxyfluorescein tetracetoxymethyl ester]
Fluorescence in HeLa cells after sodium hypochlorite stimulation [3]: Extremely intense fluorescence

Compound: Nc1ccc(Oc2ccc3c(-c4ccccc4C(=O)O)c4ccc(=O)cc-4oc3c2)cc1 [APF, aminophenylfluorescein]
Fluorescence intensity by FACS immediately after hydrogen peroxide stimulation ([4]; 0 minute): increase of fluorescence intensity was observed
Fluorescence intensity by FACS 30 and 60 minutes after stimulation (intracellular retentivity of reaction product) ([4]; 30 and 60 minutes): detection thereof became difficult after 30 minutes

Fluorescence quantum yield Φf [5]: 0.793
pKa [2]: ~5.4
Compound: O=C(O)CN(CC(=O)O)Cc1cc2c(cc1O)Oc1cc(O)c(CN(CC(=O)O)CC(=O)O)cc1C21OC(=O)c2ccccc21 [calcein]
Fluorescence intensity in the HL-60 cells over time (intracellular retentivity) ([1]; after 60 minutes, loaded as tetracetoxymethyl ester): hardly decreased
